Legend:
[1] = antioxidant test: quenching of the stable free radical DPPH; details: 5 μM test compound, 500 μM DPPH, absorbance 517 nm; FIG. 1B
Experimental: The rate of reaction is proportional to the antioxidant potency of the test compounds. A known free radical scavenger, nordihydroguaiaretic acid (NDGA), was used as a positive control. 10 μL, of 1 mM testing reagents to achieve final concentrations of 5 μM were added to 2 mL of 500 μM DPPH stirring in a cuvette.

15-hLOX-1 = target: T1, 15-hLOX-1 (Homo sapiens, UniProt P16050); details: natural products known to inhibit 15-hLOX-1; read-out: IC50 against 15-hLOX-1; cited from earlier work
T1 sequence (P16050 1-662): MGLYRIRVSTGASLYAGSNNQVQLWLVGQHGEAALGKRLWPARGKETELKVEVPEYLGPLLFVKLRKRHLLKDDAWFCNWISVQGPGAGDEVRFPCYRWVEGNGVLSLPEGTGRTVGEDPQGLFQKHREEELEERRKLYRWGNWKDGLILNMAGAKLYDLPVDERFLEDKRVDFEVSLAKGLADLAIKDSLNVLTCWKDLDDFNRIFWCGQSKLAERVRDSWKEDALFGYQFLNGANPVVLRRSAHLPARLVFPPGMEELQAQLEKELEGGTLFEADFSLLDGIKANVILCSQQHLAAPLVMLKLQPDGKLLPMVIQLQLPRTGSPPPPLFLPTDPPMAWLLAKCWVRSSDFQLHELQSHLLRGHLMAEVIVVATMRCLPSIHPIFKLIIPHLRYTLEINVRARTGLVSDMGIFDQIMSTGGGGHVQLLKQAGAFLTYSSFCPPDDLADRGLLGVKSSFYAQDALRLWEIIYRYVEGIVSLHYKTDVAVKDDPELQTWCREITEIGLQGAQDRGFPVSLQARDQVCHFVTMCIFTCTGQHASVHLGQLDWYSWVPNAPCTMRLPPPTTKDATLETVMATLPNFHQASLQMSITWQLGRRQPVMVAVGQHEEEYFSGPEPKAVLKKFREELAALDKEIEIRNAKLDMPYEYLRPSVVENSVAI

Row | Structure (SMILES) | antioxidant activity (quenching of DPPH radical) [1] | IC50 (15-hLOX-1)
1 | CC(Cc1ccc(O)c(O)c1)C(C)Cc1ccc(O)c(O)c1 (centres unmarked) [NDGA, nordihydroguaiaretic acid] | rapid quenching | –
2 | C[C@H]1[C@H](C)CC[C@]2(C)CC[C@]3(C)C(=CC[C@@H]4[C@@]5(C)CC[C@@H](O)[C@](C)(C(=O)O)[C@@H]5CC[C@]43C)[C@H]12 [boswellic acid] | – | 1000 nM
